# Read-outs that look alike come from different tables or passages of the source.
# Columns and labels:
# [1] = system: Phytophthora infestans (PHYTIN); type: in vivo; conditions: for Reduction in percent disease, Formul. I / Reduction in percent disease, Formul. II: PHYTIN, Table 21; for Reduction in percent disease, Formul. II: fungicide with Formulation II at 100 ppm; for effect of Formulation I on the effectiveness of fungicides, PHYTIN: Table 20
# [2] = system: Pseudoperonospora cubensis (PSPECU); conditions: in vivo
# [3] = system: Plasmopara viticola (PLASVI); type: in vivo; conditions: for Reduction in percent disease, Formul. I / Reduction in percent disease, Formul. II: PLASVI
# [4] = aldehyde derivative 500 ppm with mancozeb, Table 16
# [5] = fungicide with Formulation I at 100 ppm
# [6] = fungicide with Formulation I at 100 ppm, Table 21
# [7] = fungicide with Formulation II at 100 ppm, Table 21
# [8] = fungicide with Formulation I at 100 ppm, Table 19
# [9] = fungicide with Formulation I at 100 ppm, Table 18
compound,measurement,setting,value
"condensation product of urea and 3,3- dimethylbutyraldehyde [Compound R]",Reduction in percent disease PHYTIN,[1]; [4],xx (21-35% reduction in percent disease)
same,Reduction in percent disease PSPECU,[2],x (key: x: 0-20% reduction in percent disease; xx: 21-35% reduction in percent disease; xxx: 36-50% reduction in percent disease; xxxx: >50% reduction in percent disease)
same,Reduction in percent disease PLASVI,[3]; [4],x (0-20% reduction in percent disease)
condensation product of urea and 2- methylbutyraldehyde [Compound Q],Reduction in percent disease PHYTIN,[1]; [4],x (0-20% reduction in percent disease)
same,Reduction in percent disease PSPECU,[2],x (key: x: 0-20% reduction in percent disease; xx: 21-35% reduction in percent disease; xxx: 36-50% reduction in percent disease; xxxx: >50% reduction in percent disease)
same,Reduction in percent disease PLASVI,[3]; [4],x (0-20% reduction in percent disease)
CCCCCCCCCc1c(COC)nc2ncnn2c1N [Compound T],"Reduction in percent disease, Formul. I",[1]; [5],x (0-20% reduction in percent disease)
same,"Reduction in percent disease, Formul. II",[1],x (0-20% reduction in percent disease)
same,"Reduction in percent disease, Formul. I",[2],x (key: x: 0-20% reduction in percent disease; xx: 21-35% reduction in percent disease; xxx: 36-50% reduction in percent disease; xxxx: >50% reduction in percent disease)
same,"Reduction in percent disease, Formul. II",[2],x (key: x: 0-20% reduction in percent disease; xx: 21-35% reduction in percent disease; xxx: 36-50% reduction in percent disease; xxxx: >50% reduction in percent disease)
same,"Reduction in percent disease, Formul. I",[3]; [6],x (0-20% reduction in percent disease)
same,"Reduction in percent disease, Formul. II",[3]; [7],x (0-20% reduction in percent disease)
CCC(C)/C=N/NC(=O)c1cccc(C(=O)N/N=C/C(C)CC)c1 (centres unmarked) [Compound P],Reduction in percent disease PHYTIN,[1]; [4],x (0-20% reduction in percent disease)
same,Reduction in percent disease PSPECU,[2],x (key: x: 0-20% reduction in percent disease; xx: 21-35% reduction in percent disease; xxx: 36-50% reduction in percent disease; xxxx: >50% reduction in percent disease)
same,Reduction in percent disease PLASVI,[3]; [4],x (0-20% reduction in percent disease)
CC(C)(C)C/C=N/NC(=O)c1cccc(C(=O)N/N=C/CC(C)(C)C)c1 [Compound S],Reduction in percent disease PHYTIN,[1]; [4],xx (21-35% reduction in percent disease)
same,Reduction in percent disease PSPECU,[2],x (key: x: 0-20% reduction in percent disease; xx: 21-35% reduction in percent disease; xxx: 36-50% reduction in percent disease; xxxx: >50% reduction in percent disease)
same,Reduction in percent disease PLASVI,[3]; [4],x (0-20% reduction in percent disease)
Cc1ccc(-c2c(Cl)nc(C#N)n2S(=O)(=O)N(C)C)cc1 [Cyazofamid],"Reduction in percent disease, Formul. I",[1]; [5],xx (21-35% reduction in percent disease)
same,"Reduction in percent disease, Formul. II",[1],xxx (36-50% reduction in percent disease)
same,Reduction in percent disease PHYTIN,[1]; [8],x (0-20% reduction in percent disease)
same,"Reduction in percent disease, Formul. II",[2],x (key: x: 0-20% reduction in percent disease; xx: 21-35% reduction in percent disease; xxx: 36-50% reduction in percent disease; xxxx: >50% reduction in percent disease)
same,"Reduction in percent disease, Formul. I",[3]; [6],x (0-20% reduction in percent disease)
same,"Reduction in percent disease, Formul. II",[3]; [7],x (0-20% reduction in percent disease)
same,Reduction in percent disease PLASVI,[3]; [8],x (0-20% reduction in percent disease)
CCCOC(=O)NCCCN(C)C [Propamocarb],Reduction in percent disease PHYTIN,[1]; [9],xx (21-35% reduction in percent disease)
same,Reduction in percent disease PSPECU,[2],x (key: x: 0-20% reduction in percent disease; xx: 21-35% reduction in percent disease; xxx: 36-50% reduction in percent disease; xxxx: >50% reduction in percent disease)
same,Reduction in percent disease PLASVI,[3]; [9],x (0-20% reduction in percent disease)
O=C(NCc1ncc(C(F)(F)F)cc1Cl)c1c(Cl)cccc1Cl [Fluopicolide],"effect of Formulation I on the effectiveness of fungicides, PHYTIN",[1]; [5],xx (21-35% reduction in percent disease)
same,"effect of Formulation I on the effectiveness of fungicides, PSPECU",[2],x (key: x: 0-20% reduction in percent disease; xx: 21-35% reduction in percent disease; xxx: 36-50% reduction in percent disease; xxxx: >50% reduction in percent disease)
same,"Reduction in percent disease, Formul. II","[3]; fungicide with Formulation II at 100 ppm of attractant derivative, Table 22",x (0-20% reduction in percent disease)
Cc1ccc(C(C)NC(=O)[C@@H](NC(=O)OC(C)C)C(C)C)cc1 (some centres unmarked) [Iprovalicarb],Reduction in percent disease PHYTIN,[1]; [8],x (0-20% reduction in percent disease)
same,Reduction in percent disease PSPECU,[2],x (key: x: 0-20% reduction in percent disease; xx: 21-35% reduction in percent disease; xxx: 36-50% reduction in percent disease; xxxx: >50% reduction in percent disease)
same,Reduction in percent disease PLASVI,[3]; [8],xx (21-35% reduction in percent disease)
C[C@@]1(c2ccc(Oc3ccccc3)cc2)OC(=O)N(Nc2ccccc2)C1=O (racemic) [Famoxadone],Reduction in percent disease PHYTIN,[1]; [8],xx (21-35% reduction in percent disease)
same,Reduction in percent disease PSPECU,[2],x (key: x: 0-20% reduction in percent disease; xx: 21-35% reduction in percent disease; xxx: 36-50% reduction in percent disease; xxxx: >50% reduction in percent disease)
same,Reduction in percent disease PLASVI,[3]; [8],x (0-20% reduction in percent disease)
Cc1c(Br)c2ccc(F)cc2n1S(=O)(=O)c1ncn(S(=O)(=O)N(C)C)n1 [Amisulbrom],"Reduction in percent disease, Formul. I",[1]; [5],x (0-20% reduction in percent disease)
same,"Reduction in percent disease, Formul. II",[1],x (0-20% reduction in percent disease)
same,"effect of Formulation I on the effectiveness of fungicides, PHYTIN",[1]; [5],x (0-20% reduction in percent disease)
same,"Reduction in percent disease, Formul. I",[2],x (key: x: 0-20% reduction in percent disease; xx: 21-35% reduction in percent disease; xxx: 36-50% reduction in percent disease; xxxx: >50% reduction in percent disease)
same,"Reduction in percent disease, Formul. II",[2],x (key: x: 0-20% reduction in percent disease; xx: 21-35% reduction in percent disease; xxx: 36-50% reduction in percent disease; xxxx: >50% reduction in percent disease)
same,"Reduction in percent disease, Formul. I",[3]; [6],xxx (36-50% reduction in percent disease)
same,"Reduction in percent disease, Formul. II",[3]; [7],xx (21-35% reduction in percent disease)
same,"effect of Formulation I on the effectiveness of fungicides, PLASVI","[3]; fungicide with Formulation I at 100 ppm, Table 20",x (0-20% reduction in percent disease)
C/C(CC(C)C)=N\NC(=O)Nc1ccccc1 [Compound O],Reduction in percent disease PHYTIN,[1]; [4],xx (21-35% reduction in percent disease)
same,Reduction in percent disease PSPECU,[2],xx (key: x: 0-20% reduction in percent disease; xx: 21-35% reduction in percent disease; xxx: 36-50% reduction in percent disease; xxxx: >50% reduction in percent disease)
same,Reduction in percent disease PLASVI,[3]; [4],x (0-20% reduction in percent disease)
"CCNc1nc(CC)c(C(=O)NC(C#N)c2cccs2)s1 (centres unmarked) [Ethaboxam, reference compound]",Reduction in percent disease PHYTIN,[1]; [8],x (0-20% reduction in percent disease)
same,"Reduction in percent disease, Formul. II",[2],x (key: x: 0-20% reduction in percent disease; xx: 21-35% reduction in percent disease; xxx: 36-50% reduction in percent disease; xxxx: >50% reduction in percent disease)
same,"Reduction in percent disease, Formul. I",[3]; [6],x (0-20% reduction in percent disease)
same,"Reduction in percent disease, Formul. II",[3]; [7],x (0-20% reduction in percent disease)
same,Reduction in percent disease PLASVI,[3]; [8],x (0-20% reduction in percent disease)
C#CCOc1ccc(CCNC(=O)C(OCC#C)c2ccc(Cl)cc2)cc1OC (centres unmarked) [Mandipropamid],Reduction in percent disease PHYTIN,[1]; [8],x (0-20% reduction in percent disease)
same,Reduction in percent disease PSPECU,[2],x (key: x: 0-20% reduction in percent disease; xx: 21-35% reduction in percent disease; xxx: 36-50% reduction in percent disease; xxxx: >50% reduction in percent disease)
same,Reduction in percent disease PLASVI,[3]; [8],xx (21-35% reduction in percent disease)
